Experimental data taken from paper PMC5584945, “Evaluation of robenidine analog NCL195 as a novel broad-spectrum antibacterial agent” (PLoS ONE, 2017).

Columns and labels:
S. aureus Xen29 = assay: Minimum bactericidal concentration (MBC); type: cell-based; settings: Staphylococcus aureus, 99.9% colony count reduction
Description: The tray was covered with Breathe-Easy sealing membrane (Z380059, Sigma-Aldrich) and incubated for 16 h overnight at 35°C in an EnSpire Multimode Plate Reader 2300 (PerkinElmer), with data collected every 20 min and 2 sec agitation at 60 rpm between data (A600 nm) acquisitions. The experiment was repeated using the luminescent D39LUX strain on a Cytation 5 Cell Imaging Multi-Mode Reader (BioTek) using IsoplateTM-96 F tray PerkinElmer, 6005020). Kill kinetic assays on S. aureus Xen29 was carried out essentially as described for MIC determination on Cytation 5 Cell Imaging Multi-Mode Reader.
In order to determine the MBC of each compound against S. pneumoniae D39 or S. aureus Xen29, 10 μl aliquots from each duplicate well from the MIC assays (starting from the MIC for each compound) was inoculated onto a HBA plate and incubated at 37°C (+ 5% CO2 for S. pneumoniae D39). Plates were examined at 24 and 48 h and the MBC was recorded as the lowest concentration of each test compound at which a 99.9% colony count reduction was observed on the plate.

[1] = tested on: panel of mammalian cell lines (Caco-2, HEL 299, Hep G2, MDBK, MCF7); assay: In vitro cytotoxicity, WST-1, all cell lines tested; type: cell-based; settings: lower bound over all the cell lines tested
Description: In order to ensure minimal off target mammalian cell cytotoxicity, we assayed NCL812, NCL195 and NCL219 for in vitro cytotoxicity using a panel of adherent mammalian cell lines: Caco-2 (human colorectal adenocarcinoma cell line), HEL 299 (non-cancerous human lung fibroblast cell line), Hep G2 (human hepatocellular carcinoma cell line), MDBK (normal bovine kidney cell line) and MCF7 (human mammary gland adenocarcinoma cell line). Cell lines were maintained in Dulbecco’s Modified Eagle’s Medium (DMEM; […] After 24 h incubation, media was removed, washed once with medium without antibiotics and fresh medium supplemented with 10% (vol/vol) FBS was added. […] Following exposure for 24 h, WST-1 reagent was added to each well at a final concentration of 10%. […] The IC50 value for each compound against each cell line was determined via non-linear regression (three parameters) using GraphPad Prism v6 software. The robustness of assays was confirmed with selected cell lines (Hep G2 and MDBK) seeded onto a 96–well Microwell Nunclon Delta Surface plate (Thermo Scientific Nunc; Cat No: 136101) at 5 × 10^4 cells per well.

S. pneumoniae D39 = assay: Minimum bactericidal concentration (MBC); type: cell-based; settings: Streptococcus pneumoniae
S. pneumoniae = assay: MIC, broth micro-dilution (CLSI); type: cell-based, Streptococcus pneumoniae; settings: for MIC / MIC50 / MIC90: Streptococcus pneumoniae

Q: Which MBC (S. aureus Xen29) does the source give for `Cl.N=C(NN=Cc1ccc(Cl)cc1)NN=Cc1ccc(Cl)cc1` [NCL812, 2,2'-bis[(4-chlorophenyl)methylene] carbonimidic dihydrazide hydrochloride] here?
A: Its MBC is 4 µg/mL.

Q: And the IC50 [1]?
A: The IC50 was greater than 4 µg/mL.

Q: And the MBC (S. pneumoniae D39)?
A: The MBC was 8 µg/mL.

Q: What about the MIC range (S. pneumoniae; 21 isolates) of the same compound?
A: The MIC range was 2 to 8 µg/mL.

Q: And the MIC range (S. pneumoniae; S1 Table isolates, 5% FBS + 3% washed RBC)?
A: Its MIC range is 4 to 8 µg/mL.

Q: And the MIC range (S. pneumoniae; S1 Table isolates, 10% FBS + 3% washed RBC)?
A: Its MIC range is 2 to 8 µg/mL.

Q: And the MIC (S. pneumoniae; A66.1 (serotype 3), 5% FBS)?
A: Its MIC is 4 µg/mL.

Q: And the MIC (S. pneumoniae; A66.1 (serotype 3), 10% FBS)?
A: The MIC was 4 µg/mL.

Q: What about the MIC (S. pneumoniae; ATCC6303, ATCC 6303 (serotype 3), 5% FBS + 3% washed RBC) of the same compound?
A: The MIC was 4 µg/mL.

Q: And the MIC (S. pneumoniae; ATCC6303, ATCC 6303 (serotype 3), 10% FBS + 3% washed RBC)?
A: The MIC was 4 µg/mL.

Q: And the MIC (S. pneumoniae; D39/D39LUX (serotype 2), 5% FBS)?
A: The MIC was 8 µg/mL.

Q: And the MIC (S. pneumoniae; D39/D39LUX (serotype 2), 10% FBS)?
A: Its MIC is 8 µg/mL.

Q: What about the MIC (S. pneumoniae; EF3030 (serotype 19F), 5% FBS) of the same compound?
A: Its MIC is 8 µg/mL.

Q: And the MIC (S. pneumoniae; EF3030 (serotype 19F), 10% FBS)?
A: Its MIC is 8 µg/mL.

Q: And the MIC (S. pneumoniae; L82016 (serotype 6B), 5% FBS)?
A: Its MIC is 4 µg/mL.

Q: What about the MIC (S. pneumoniae; L82016 (serotype 6B), 10% FBS) of the same compound?
A: Its MIC is 4 µg/mL.

Q: And the MIC (S. pneumoniae; P9 (serotype 6A), 5% FBS)?
A: Its MIC is 4 µg/mL.

Q: What about the MIC (S. pneumoniae; P9 (serotype 6A), 10% FBS) of the same compound?
A: Its MIC is 4 µg/mL.

Q: What about the MIC (S. pneumoniae; P21 (serotype 3), 5% FBS) of the same compound?
A: Its MIC is 4 µg/mL.

Q: And the MIC (S. pneumoniae; P21 (serotype 3), 10% FBS)?
A: Its MIC is 4 µg/mL.

Q: And the MIC50 (S. pneumoniae; S1 Table isolates, 5% FBS)?
A: The MIC50 was 4 µg/mL.

Q: What about the MIC90 (S. pneumoniae; S1 Table isolates, 5% FBS) of the same compound?
A: Its MIC90 is 8 µg/mL.

Q: What about the MIC50 (S. pneumoniae; S1 Table isolates, 10% FBS) of the same compound?
A: The MIC50 was 4 µg/mL.

Q: What about the MIC90 (S. pneumoniae; S1 Table isolates, 10% FBS) of the same compound?
A: Its MIC90 is 8 µg/mL.

Q: And the MIC (S. pneumoniae; TIGR4 (serotype 4), 5% FBS)?
A: Its MIC is 4 µg/mL.

Q: And the MIC (S. pneumoniae; TIGR4 (serotype 4), 10% FBS)?
A: Its MIC is 4 µg/mL.

Q: And the MIC (S. pneumoniae; WCH16 (serotype 6A), 5% FBS)?
A: Its MIC is 4 µg/mL.

Q: And the MIC (S. pneumoniae; WCH16 (serotype 6A), 10% FBS)?
A: The MIC was 8 µg/mL.

Q: And the MIC (S. pneumoniae; WCH43 (serotype 4), 5% FBS)?
A: Its MIC is 4 µg/mL.

Q: And the MIC (S. pneumoniae; WCH43 (serotype 4), 10% FBS)?
A: The MIC was 4 µg/mL.

Q: What about the MIC (S. pneumoniae; WCH46 (serotype 4), 5% FBS) of the same compound?
A: The MIC was 4 µg/mL.

Q: What about the MIC (S. pneumoniae; WCH46 (serotype 4), 10% FBS) of the same compound?
A: The MIC was 4 µg/mL.

Q: What about the MIC (S. pneumoniae; WCH57 (serotype 8), 5% FBS) of the same compound?
A: Its MIC is 4 µg/mL.

Q: What about the MIC (S. pneumoniae; WCH57 (serotype 8), 10% FBS) of the same compound?
A: The MIC was 4 µg/mL.

Q: What about the MIC (S. pneumoniae; WCH77 (serotype 5), 5% FBS) of the same compound?
A: The MIC was 4 µg/mL.

Q: And the MIC (S. pneumoniae; WCH77 (serotype 5), 10% FBS)?
A: The MIC was 2 µg/mL.

Q: What about the MIC (S. pneumoniae; WCH86 (serotype 4), 5% FBS) of the same compound?
A: The MIC was 4 µg/mL.

Q: And the MIC (S. pneumoniae; WCH86 (serotype 4), 10% FBS)?
A: The MIC was 8 µg/mL.

Q: And the MIC (S. pneumoniae; WCH89 (serotype 7), 5% FBS)?
A: The MIC was 4 µg/mL.

Q: And the MIC (S. pneumoniae; WCH89 (serotype 7), 10% FBS)?
A: The MIC was 8 µg/mL.

Q: What about the MIC (S. pneumoniae; WCH92 (serotype 4), 5% FBS) of the same compound?
A: Its MIC is 4 µg/mL.

Q: What about the MIC (S. pneumoniae; WCH92 (serotype 4), 10% FBS) of the same compound?
A: The MIC was 4 µg/mL.

Q: What about the MIC (S. pneumoniae; WCH137 (serotype 6A), 5% FBS) of the same compound?
A: Its MIC is 4 µg/mL.

Q: What about the MIC (S. pneumoniae; WCH137 (serotype 6A), 10% FBS) of the same compound?
A: Its MIC is 4 µg/mL.

Q: What about the MIC (S. pneumoniae; WCH158 (serotype 19F), 5% FBS) of the same compound?
A: Its MIC is 4 µg/mL.

Q: And the MIC (S. pneumoniae; WCH158 (serotype 19F), 10% FBS)?
A: Its MIC is 4 µg/mL.

Q: And the MIC (S. pneumoniae; WCH184 (serotype 19F), 5% FBS)?
A: Its MIC is 4 µg/mL.

Q: And the MIC (S. pneumoniae; WCH184 (serotype 19F), 10% FBS)?
A: Its MIC is 4 µg/mL.

Q: What about the MIC (S. pneumoniae; WCH211 (serotype 11), 5% FBS) of the same compound?
A: The MIC was 4 µg/mL.

Q: And the MIC (S. pneumoniae; WCH211 (serotype 11), 10% FBS)?
A: Its MIC is 4 µg/mL.

Q: And the MIC (S. pneumoniae; WU2 (serotype 3), 5% FBS)?
A: Its MIC is 8 µg/mL.
